Laboratory results reported in patent US20230141101A1, “PDE4 INHIBITOR COMPOUND AND MEDICAL USE THEREOF” (Suzhou Longbotai Pharmaceuticals Co., Ltd., priority 2020, published 2023).

How the values were obtained:
Format in all cases: biochemical
Settings in all cases: 20 nM
PDE4A1A = target: T1, PDE4A1A (Homo sapiens, UniProt P27815); test: PDE4 inhibitory activity assay (FAM-cAMP enzymatic reaction), PDE4A1A
T1 construct: purchased BPS 60040
Procedure, shortened: (§1)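 Each isoform is incubated with test compound for 15 min at room temperature before FAM-cAMP substrate starts a 30-min reaction.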

PDE4B1 = target: T2, PDE4B1 (Homo sapiens, UniProt Q07343); test: PDE4 inhibitory activity assay (FAM-cAMP enzymatic reaction), PDE4B1
T2 construct: purchased BPS 60041
T2 sequence (Q07343 whole entry): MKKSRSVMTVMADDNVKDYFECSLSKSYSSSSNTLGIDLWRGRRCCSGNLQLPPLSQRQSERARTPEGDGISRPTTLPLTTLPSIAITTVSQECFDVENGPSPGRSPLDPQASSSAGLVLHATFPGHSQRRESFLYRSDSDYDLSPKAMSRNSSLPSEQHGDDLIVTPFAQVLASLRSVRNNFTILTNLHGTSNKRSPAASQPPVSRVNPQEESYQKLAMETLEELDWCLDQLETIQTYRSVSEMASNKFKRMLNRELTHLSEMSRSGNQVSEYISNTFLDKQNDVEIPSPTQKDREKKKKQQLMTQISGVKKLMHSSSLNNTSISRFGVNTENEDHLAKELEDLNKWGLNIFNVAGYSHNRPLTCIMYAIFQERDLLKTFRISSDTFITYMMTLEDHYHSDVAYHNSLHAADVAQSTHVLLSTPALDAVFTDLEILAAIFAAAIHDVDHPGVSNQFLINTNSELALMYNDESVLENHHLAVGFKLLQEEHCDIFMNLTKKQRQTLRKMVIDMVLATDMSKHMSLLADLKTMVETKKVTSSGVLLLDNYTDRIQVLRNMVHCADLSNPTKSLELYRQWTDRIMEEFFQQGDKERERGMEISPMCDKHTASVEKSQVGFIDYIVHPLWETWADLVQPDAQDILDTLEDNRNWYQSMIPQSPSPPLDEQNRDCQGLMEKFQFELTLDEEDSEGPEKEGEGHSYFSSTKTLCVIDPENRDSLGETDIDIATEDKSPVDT
Procedure, shortened: as §1

PDE4D2 = PDE4D2 (Homo sapiens, UniProt Q08499); test: PDE4 inhibitory activity assay (FAM-cAMP enzymatic reaction), PDE4D2
Sequence of PDE4D2 (Q08499 303-809): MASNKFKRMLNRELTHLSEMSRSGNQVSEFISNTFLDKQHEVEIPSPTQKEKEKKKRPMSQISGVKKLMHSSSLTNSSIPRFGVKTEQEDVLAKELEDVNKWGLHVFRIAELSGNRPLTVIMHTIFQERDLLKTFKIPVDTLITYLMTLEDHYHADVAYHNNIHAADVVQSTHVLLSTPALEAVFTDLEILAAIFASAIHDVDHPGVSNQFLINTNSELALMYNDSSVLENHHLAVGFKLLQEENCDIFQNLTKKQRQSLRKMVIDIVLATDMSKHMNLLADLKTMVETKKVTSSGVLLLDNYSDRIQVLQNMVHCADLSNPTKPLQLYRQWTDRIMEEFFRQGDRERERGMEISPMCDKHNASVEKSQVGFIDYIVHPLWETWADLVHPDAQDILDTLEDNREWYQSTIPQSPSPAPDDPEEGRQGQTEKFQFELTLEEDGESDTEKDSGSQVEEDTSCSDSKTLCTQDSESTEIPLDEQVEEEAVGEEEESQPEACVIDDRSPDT
Procedure, shortened: as §1

T1 sequence (P27815 1-647 isoform P27815-4): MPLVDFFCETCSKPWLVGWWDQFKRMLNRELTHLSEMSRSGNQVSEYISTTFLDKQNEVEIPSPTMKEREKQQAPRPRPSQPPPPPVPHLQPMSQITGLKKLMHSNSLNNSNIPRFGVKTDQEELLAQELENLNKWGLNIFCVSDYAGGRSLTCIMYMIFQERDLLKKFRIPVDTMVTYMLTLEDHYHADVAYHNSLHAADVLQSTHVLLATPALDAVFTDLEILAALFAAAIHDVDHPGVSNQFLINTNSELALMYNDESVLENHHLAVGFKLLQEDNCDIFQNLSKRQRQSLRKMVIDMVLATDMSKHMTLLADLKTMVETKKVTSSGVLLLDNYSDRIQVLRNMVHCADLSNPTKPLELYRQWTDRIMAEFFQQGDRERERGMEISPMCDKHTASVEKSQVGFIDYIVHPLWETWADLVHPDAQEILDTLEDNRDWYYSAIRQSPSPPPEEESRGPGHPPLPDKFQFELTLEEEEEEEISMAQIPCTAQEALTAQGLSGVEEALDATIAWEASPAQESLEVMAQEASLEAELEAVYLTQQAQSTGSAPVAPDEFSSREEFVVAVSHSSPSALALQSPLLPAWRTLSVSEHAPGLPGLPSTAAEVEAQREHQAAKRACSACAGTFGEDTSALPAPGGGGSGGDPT

CCOc1nc([C@@H](CS(C)(=O)=O)N2C(=O)c3csc(NC(=O)CN(C)C)c3C2=O)ccc1OC [Ex. 228, (S)-2-(dimethylamino)-N-(5-(1-(6-ethoxy-5-methoxypyridin-2-yl)-2-(methylsulfonyl)ethyl)-4,6-dioxo-5,6-dihydro-4H-thieno[3,4-c]pyrrol-1-yl)acetamide]
+: PDE4 A1 inhibitory effect at 20 nM (PDE4A1A) | PDE4 B1 inhibitory effect at 20 nM (PDE4B1) | PDE4 D2 inhibitory effect at 20 nM (PDE4D2)

CCOc1nc([C@@H](CS(C)(=O)=O)N2C(=O)c3csc(NC(=O)CN(CC)CC)c3C2=O)ccc1OC [Ex. 229, (S)-2-(diethylamino)-N-(5-(1-(6-ethoxy-5-methoxypyridin-2-yl)-2-(methylsulfonyl)ethyl)-4,6-dioxo-5,6-dihydro-4H-thieno[3,4-c]pyrrol-1-yl)acetamide]
+: PDE4 A1 inhibitory effect at 20 nM (PDE4A1A) | PDE4 B1 inhibitory effect at 20 nM (PDE4B1) | PDE4 D2 inhibitory effect at 20 nM (PDE4D2)

CCOc1nc([C@@H](CS(C)(=O)=O)N2C(=O)c3csc(NC(=O)CN4CCCCC4)c3C2=O)ccc1OC [Ex. 230, (S)—N-(5-(1-(6-ethoxy-5-methoxypyridin-2-yl)-2-(methylsulfonyl)ethyl)-4,6-dioxo-5,6-dihydro-4H-thieno[3,4-c]pyrrol-1-yl)-2-(piperidin-1-yl)acetamide]
+: PDE4 A1 inhibitory effect at 20 nM (PDE4A1A) | PDE4 B1 inhibitory effect at 20 nM (PDE4B1) | PDE4 D2 inhibitory effect at 20 nM (PDE4D2)

CCOc1nc([C@@H](CS(C)(=O)=O)N2C(=O)c3csc(NC(=O)CN4CCCC4)c3C2=O)ccc1OC [Ex. 231, (S)—N-(5-(1-(6-ethoxy-5-methoxypyridin-2-yl)-2-(methylsulfonyl)ethyl)-4,6-dioxo-5,6-dihydro-4H-thieno[3,4-c]pyrrol-1-yl)-2-(pyrrolidin-1-yl)acetamide]
+: PDE4 A1 inhibitory effect at 20 nM (PDE4A1A) | PDE4 B1 inhibitory effect at 20 nM (PDE4B1) | PDE4 D2 inhibitory effect at 20 nM (PDE4D2)
